# Reference: PubChem BioAssay (NCI)
#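 These data come from cells grown in 96-well plates and exposed to compound for 48 hours at five concentrations. At the TGI there is no net growth.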
# Columns and labels:
# Assay in all cases: NCI-60 cell line screen, 48 h
# HCT-15 colon = tested on: HCT-15 colon
# NCI-H226 lung = tested on: NCI-H226 lung
# NCI-H522 lung = tested on: NCI-H522 lung
# OVCAR-4 ovarian = tested on: OVCAR-4 ovarian
# OVCAR-8 ovarian = tested on: OVCAR-8 ovarian
# SK-MEL-5 melanoma = tested on: SK-MEL-5 melanoma
# SW-620 colon = tested on: SW-620 colon
# HCT-116 colon = tested on: HCT-116 colon
# SN12C renal = tested on: SN12C renal
# T-47D breast = tested on: T-47D breast
# HL-60(TB) leukemia = tested on: HL-60(TB) leukemia
# MALME-3M melanoma = tested on: MALME-3M melanoma
SMILES,TGI (HCT-15 colon),TGI (NCI-H226 lung),TGI (NCI-H522 lung),TGI (OVCAR-4 ovarian),TGI (OVCAR-8 ovarian),TGI (SK-MEL-5 melanoma),TGI (SW-620 colon),TGI (HCT-116 colon),TGI (SN12C renal),TGI (T-47D breast),TGI (HL-60(TB) leukemia),TGI (MALME-3M melanoma)
CC(=O)OC1COC(N2CCc3cc([N+](=O)[O-])ccc32)C(OC(C)=O)C1OC(C)=O (stereo unspecified),> 100 µM,> 100 µM,> 100 µM,> 100 µM,> 100 µM,> 100 µM,> 100 µM,,,,,
CC(=O)NC1C(OCC(=O)NCCNc2ccc([N+](=O)[O-])c3[nH]c4ccccc4c(=O)c23)C(O)C(CO)OC1(C)OCc1ccccc1 (stereo unspecified),> 100 µM,> 100 µM,> 100 µM,> 100 µM,> 100 µM,> 100 µM,> 100 µM,> 100 µM,> 100 µM,> 100 µM,,
NNC(=O)C(=O)NN=C(C(Cl)(Cl)CO)C(Cl)(Cl)CO,75.5 µM,> 100 µM,25 µM,> 100 µM,57.9 µM,> 100 µM,40.3 µM,66.1 µM,> 100 µM,,69.6 µM,44.4 µM
CCOC(=O)/C(=C/c1ccccn1)C(=O)c1ccccc1,29.3 µM,31.8 µM,13.8 µM,36.8 µM,31.4 µM,28.6 µM,32.6 µM,27.3 µM,27.2 µM,,5.3 µM,27.3 µM
O=C(c1ccccc1)C1(Br)S(=O)(=O)OCCOS1(=O)=O,> 100 µM,> 100 µM,> 100 µM,> 100 µM,> 100 µM,> 100 µM,> 100 µM,> 100 µM,> 100 µM,,> 100 µM,> 100 µM
NNc1nnc(CCCCCCCCc2nnc(NN)n2N)n1N,> 100 µM,> 100 µM,> 100 µM,> 100 µM,76.7 µM,> 100 µM,> 100 µM,> 100 µM,> 100 µM,,> 100 µM,
COc1ccc2ccccc2c1C1=NC(C)(C)CO1,> 100 µM,> 100 µM,> 100 µM,> 100 µM,> 100 µM,> 100 µM,> 100 µM,> 100 µM,> 100 µM,,> 100 µM,> 100 µM
CC1(C)O[C@@H]2[C@@H](COC(C)(C)O[C@H]2C2SCCCS2)O1,> 100 µM,,> 100 µM,> 100 µM,> 100 µM,> 100 µM,> 100 µM,> 100 µM,> 100 µM,> 100 µM,,> 100 µM
COc1ccc(-c2c(C3=NCCCN3)nnn2-c2ccccc2)cc1,> 100 µM,> 100 µM,> 100 µM,> 100 µM,> 100 µM,> 100 µM,> 100 µM,> 100 µM,> 100 µM,,> 100 µM,> 100 µM
C1CCC(N=C2N(C3CCCCC3)C(=NC3CCCCC3)N2C2CCCCC2)CC1,> 100 µM,,> 100 µM,> 100 µM,> 100 µM,> 100 µM,> 100 µM,> 100 µM,> 100 µM,,> 100 µM,> 100 µM
COc1cc2nc(Cl)nc(NS(=O)(=O)c3cc4ccccc4s3)c2cc1OC,> 100 µM,> 100 µM,74.6 µM,88.1 µM,> 100 µM,37.9 µM,43.5 µM,> 100 µM,90.6 µM,56.7 µM,,> 100 µM
C1CSCCSCCCS[C@@H]2CCCCC2SC1 (stereo partly specified),28.8 µM,> 100 µM,> 100 µM,> 100 µM,> 100 µM,> 100 µM,53.5 µM,> 100 µM,> 100 µM,,> 100 µM,> 100 µM
CC(N)(CC(O)(C(F)(F)Cl)C(F)(F)Cl)C(=O)O (stereo unspecified),> 10 µM,> 10 µM,> 10 µM,> 10 µM,> 10 µM,> 10 µM,> 10 µM,> 10 µM,> 10 µM,> 10 µM,,> 10 µM
Cc1cc(O)c(/C=N/C(N)=S)c(=O)o1,> 100 µM,> 100 µM,> 100 µM,> 100 µM,> 100 µM,> 100 µM,> 100 µM,> 100 µM,> 100 µM,,41.2 µM,
O=C1CC(c2ccc(Cl)cc2)=Nc2ccccc2N1,> 100 µM,> 100 µM,> 100 µM,> 100 µM,76.6 µM,> 100 µM,47.9 µM,59.6 µM,> 100 µM,,57.6 µM,> 100 µM
